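Where inhibition never reached the appropriate level, the endpoint shown equals the highest concentration tested. Otherwise, values were interpolated linearly from a five-concentration, 48-hour dose response in 96-well plates. Abbreviation: GI50, concentration required for 50% inhibition of growth. TGI is the concentration that stops growth completely.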
Columns and labels:
Assay in all cases: NCI tumour cell line growth inhibition, 48 h
UACC-62 melanoma = test system: UACC-62 melanoma
M14 melanoma = test system: M14 melanoma
ACHN renal = test system: ACHN renal
NCI-H522 lung = test system: NCI-H522 lung
UO-31 renal = test system: UO-31 renal
HCT-15 colon = test system: HCT-15 colon
SN12C renal = test system: SN12C renal
OVCAR-4 ovarian = test system: OVCAR-4 ovarian
NCI-H23 lung = test system: NCI-H23 lung
HOP-62 NSCLC = test system: HOP-62 NSCLC
COLO 205 colon = test system: COLO 205 colon
RXF-631 renal = test system: RXF-631 renal
A498 renal = test system: A498 renal
SK-MEL-28 melanoma = test system: SK-MEL-28 melanoma
SK-OV-3 ovarian = test system: SK-OV-3 ovarian
DMS 273 small cell lung = test system: DMS 273 small cell lung
SF-268 CNS = test system: SF-268 CNS
HOP-92 NSCLC = test system: HOP-92 NSCLC
786-0 renal = test system: 786-0 renal
SF-539 CNS = test system: SF-539 CNS
HCC-2998 colon = test system: HCC-2998 colon
M19-MEL melanoma = test system: M19-MEL melanoma
DLD-1 colon = test system: DLD-1 colon
RPMI-8226 leukemia = test system: RPMI-8226 leukemia
CCRF-CEM leukemia = test system: CCRF-CEM leukemia
XF 498 CNS = test system: XF 498 CNS
CAKI-1 renal = test system: CAKI-1 renal
DMS 114 small cell lung = test system: DMS 114 small cell lung
K-562 leukemia = test system: K-562 leukemia
SK-MEL-2 melanoma = test system: SK-MEL-2 melanoma
HL-60(TB) leukemia = test system: HL-60(TB) leukemia
SNB-78 CNS = test system: SNB-78 CNS
HCT-116 colon = test system: HCT-116 colon
NCI-H226 lung = test system: NCI-H226 lung
SNB-75 CNS = test system: SNB-75 CNS
SR leukemia = test system: SR leukemia
LXFL 529 NSCLC = test system: LXFL 529 NSCLC
IGROV1 ovarian = test system: IGROV1 ovarian
MALME-3M melanoma = test system: MALME-3M melanoma
MOLT-4 leukemia = test system: MOLT-4 leukemia
UACC-257 melanoma = test system: UACC-257 melanoma
HT29 colon = test system: HT29 colon
EKVX NSCLC = test system: EKVX NSCLC
OVCAR-3 ovarian = test system: OVCAR-3 ovarian
SN12K1 renal = test system: SN12K1 renal
SNB-19 CNS = test system: SNB-19 CNS
NCI/ADR-RES ovarian = test system: NCI/ADR-RES ovarian
P388/ADR leukemia = test system: P388/ADR leukemia
OVCAR-8 ovarian = test system: OVCAR-8 ovarian
SK-MEL-5 melanoma = test system: SK-MEL-5 melanoma
KM20L2 colon = test system: KM20L2 colon
MCF7 breast = test system: MCF7 breast
RXF 393 renal = test system: RXF 393 renal
A549 NSCLC = test system: A549 NSCLC
LOX IMVI melanoma = test system: LOX IMVI melanoma
SF-295 CNS = test system: SF-295 CNS
P388 leukemia = test system: P388 leukemia
SW-620 colon = test system: SW-620 colon
U251 CNS = test system: U251 CNS
HOP-18 NSCLC = test system: HOP-18 NSCLC
NCI-H460 lung = test system: NCI-H460 lung
OVCAR-5 ovarian = test system: OVCAR-5 ovarian
KM12 colon = test system: KM12 colon

C1C[S][Ge]2([S]CCO1)[S]CCOCC[S]2
GI50 (UACC-62 melanoma): > 100 µM | TGI (UACC-62 melanoma): > 100 µM | GI50 (M14 melanoma): > 100 µM | TGI (M14 melanoma): > 100 µM | GI50 (ACHN renal): > 100 µM | TGI (ACHN renal): > 100 µM | GI50 (NCI-H522 lung): > 100 µM | TGI (NCI-H522 lung): > 100 µM | GI50 (UO-31 renal): > 100 µM | TGI (UO-31 renal): > 100 µM | GI50 (HCT-15 colon): > 100 µM | TGI (HCT-15 colon): > 100 µM | GI50 (SN12C renal): > 100 µM | TGI (SN12C renal): > 100 µM | GI50 (OVCAR-4 ovarian): > 100 µM | TGI (OVCAR-4 ovarian): > 100 µM | GI50 (NCI-H23 lung): > 100 µM | TGI (NCI-H23 lung): > 100 µM | GI50 (HOP-62 NSCLC): > 100 µM | TGI (HOP-62 NSCLC): > 100 µM | GI50 (COLO 205 colon): > 100 µM | TGI (COLO 205 colon): > 100 µM | GI50 (RXF-631 renal): > 100 µM | TGI (RXF-631 renal): > 100 µM | GI50 (A498 renal): > 100 µM | TGI (A498 renal): > 100 µM | GI50 (SK-MEL-28 melanoma): > 100 µM | TGI (SK-MEL-28 melanoma): > 100 µM | GI50 (SK-OV-3 ovarian): > 100 µM | TGI (SK-OV-3 ovarian): > 100 µM | GI50 (DMS 273 small cell lung): > 100 µM | TGI (DMS 273 small cell lung): > 100 µM | GI50 (SF-268 CNS): > 100 µM | TGI (SF-268 CNS): > 100 µM | GI50 (HOP-92 NSCLC): > 100 µM | TGI (HOP-92 NSCLC): > 100 µM | GI50 (786-0 renal): > 100 µM | TGI (786-0 renal): > 100 µM | GI50 (SF-539 CNS): > 100 µM | TGI (SF-539 CNS): > 100 µM | GI50 (HCC-2998 colon): > 100 µM | TGI (HCC-2998 colon): > 100 µM | GI50 (M19-MEL melanoma): > 100 µM | TGI (M19-MEL melanoma): > 100 µM | GI50 (DLD-1 colon): > 100 µM | TGI (DLD-1 colon): > 100 µM | GI50 (RPMI-8226 leukemia): > 100 µM | TGI (RPMI-8226 leukemia): > 100 µM | GI50 (CCRF-CEM leukemia): > 100 µM | TGI (CCRF-CEM leukemia): > 100 µM | GI50 (XF 498 CNS): > 100 µM | TGI (XF 498 CNS): > 100 µM | GI50 (CAKI-1 renal): > 100 µM | TGI (CAKI-1 renal): > 100 µM | GI50 (DMS 114 small cell lung): > 100 µM | TGI (DMS 114 small cell lung): > 100 µM | GI50 (K-562 leukemia): > 100 µM | TGI (K-562 leukemia): > 100 µM | GI50 (SK-MEL-2 melanoma): > 100 µM | TGI (SK-MEL-2 melanoma): > 100 µM | GI50 (HL-60(TB) leukemia): > 100 µM | TGI (HL-60(TB) leukemia): > 100 µM | GI50 (SNB-78 CNS): > 100 µM | TGI (SNB-78 CNS): > 100 µM | GI50 (HCT-116 colon): > 100 µM | TGI (HCT-116 colon): > 100 µM | GI50 (NCI-H226 lung): > 100 µM | TGI (NCI-H226 lung): > 100 µM | GI50 (SNB-75 CNS): 2.51 µM | TGI (SNB-75 CNS): 48.4 µM | GI50 (SR leukemia): > 100 µM | TGI (SR leukemia): > 100 µM | GI50 (LXFL 529 NSCLC): > 100 µM | TGI (LXFL 529 NSCLC): > 100 µM | GI50 (IGROV1 ovarian): > 100 µM | TGI (IGROV1 ovarian): > 100 µM | GI50 (MALME-3M melanoma): > 100 µM | TGI (MALME-3M melanoma): > 100 µM | GI50 (MOLT-4 leukemia): > 100 µM | TGI (MOLT-4 leukemia): > 100 µM

CCC1CN2CCC1CC2 (stereo not given)
TGI (UACC-62 melanoma): > 100 µM | TGI (UACC-257 melanoma): > 100 µM | TGI (HT29 colon): > 100 µM | TGI (NCI-H522 lung): > 100 µM | TGI (UO-31 renal): > 100 µM | TGI (HCT-15 colon): > 100 µM | TGI (EKVX NSCLC): > 100 µM | TGI (SN12C renal): > 100 µM | TGI (OVCAR-3 ovarian): > 100 µM | TGI (SN12K1 renal): > 100 µM | TGI (OVCAR-4 ovarian): > 100 µM | TGI (NCI-H23 lung): > 100 µM | TGI (HOP-62 NSCLC): > 100 µM | TGI (COLO 205 colon): > 100 µM | TGI (A498 renal): > 100 µM | TGI (SNB-19 CNS): > 100 µM | TGI (NCI/ADR-RES ovarian): > 100 µM | TGI (SK-MEL-28 melanoma): > 100 µM | TGI (P388/ADR leukemia): > 100 µM | TGI (OVCAR-8 ovarian): > 100 µM | TGI (SK-OV-3 ovarian): > 100 µM | TGI (DMS 273 small cell lung): > 100 µM | TGI (SF-268 CNS): > 100 µM | TGI (SK-MEL-5 melanoma): > 100 µM | TGI (KM20L2 colon): > 100 µM | TGI (MCF7 breast): > 100 µM | TGI (SF-539 CNS): > 100 µM | TGI (HCC-2998 colon): > 100 µM | TGI (RXF 393 renal): > 100 µM | TGI (A549 NSCLC): > 100 µM | TGI (LOX IMVI melanoma): > 100 µM | TGI (M19-MEL melanoma): > 100 µM | TGI (SF-295 CNS): > 100 µM | TGI (DLD-1 colon): > 100 µM | TGI (RPMI-8226 leukemia): > 100 µM | TGI (CCRF-CEM leukemia): > 100 µM | TGI (XF 498 CNS): > 100 µM | TGI (DMS 114 small cell lung): > 100 µM | TGI (K-562 leukemia): > 100 µM | TGI (SK-MEL-2 melanoma): > 100 µM | TGI (P388 leukemia): > 100 µM | TGI (SW-620 colon): > 100 µM | TGI (U251 CNS): > 100 µM | TGI (HL-60(TB) leukemia): > 100 µM | TGI (HOP-18 NSCLC): > 100 µM | TGI (SNB-78 CNS): > 100 µM | TGI (HCT-116 colon): > 100 µM | TGI (NCI-H226 lung): > 100 µM | TGI (NCI-H460 lung): > 100 µM | TGI (OVCAR-5 ovarian): > 100 µM | TGI (SNB-75 CNS): > 100 µM | TGI (KM12 colon): > 100 µM | TGI (IGROV1 ovarian): > 100 µM | TGI (MALME-3M melanoma): > 100 µM | TGI (MOLT-4 leukemia): > 100 µM
